Laboratory results as given in paper PMC9145622, “Synthesis, Biological Evaluation, and Docking Studies of Antagonistic Hydroxylated Arecaidine Esters Targeting mAChRs” (Molecules, 2022).
Read-outs that look alike come from different tables or passages of the source.

Legend:
[1] = target: T1, hM1 (Homo sapiens, UniProt P11229); test: Competitive [3H]NMS radioligand binding, CHO-K1 membranes expressing hM1; details: for Displacement ± SD hM1: displacement of [3H]NMS, single ligand concentration corresponding to a Ki value of 1 µM (Cheng-Prusoff)
T1 sequence (P11229 1-460): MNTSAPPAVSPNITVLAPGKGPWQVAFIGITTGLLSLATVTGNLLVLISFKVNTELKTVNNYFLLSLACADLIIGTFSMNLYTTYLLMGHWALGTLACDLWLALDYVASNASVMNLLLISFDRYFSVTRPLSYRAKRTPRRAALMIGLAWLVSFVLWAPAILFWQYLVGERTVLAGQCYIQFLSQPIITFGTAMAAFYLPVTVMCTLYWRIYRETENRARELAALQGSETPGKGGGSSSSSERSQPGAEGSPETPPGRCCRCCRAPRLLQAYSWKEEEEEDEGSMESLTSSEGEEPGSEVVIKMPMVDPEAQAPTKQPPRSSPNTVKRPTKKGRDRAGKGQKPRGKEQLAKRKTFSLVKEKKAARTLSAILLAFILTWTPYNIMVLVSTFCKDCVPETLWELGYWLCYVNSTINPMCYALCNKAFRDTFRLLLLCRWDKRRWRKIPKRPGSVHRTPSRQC
From the text: (§1) The arecaidine esters’ affinities towards the human mAChR subtypes hM1–hM5 were studied in a competitive radioligand binding assay using CHO-K1 cell membrane homogenates expressing a single mAChR subtype and tritiated N-methyl scopolamine methyl chloride ([^3H]NMS). To speed up our affinity testing regime, we subjected all test substances to preliminary single-concentration displacement assays, as described previously. Compounds with percent displacements below 75% at any of the subtypes were dropped from further investigations (Table S1). For compounds meeting the percent displacement threshold (8c, 10b, 10c, 17b, 18b, and 25), inhibition constants (Ki) were assessed in dose-dependent displacement experiments (Table 2).
(§2) Cell membranes bearing hM1-hM5 receptors were prepared as described previously. Briefly, stably transfected CHO-K1 cells were grown to at least 80% confluency in T175 flasks, washed with ice-cold DPBS, and scraped into a mixture of ice-cold 2 mL 10 mM Tris-HCl, 1 mM EDTA-buffer, pH 7.4 and 200 µL protease inhibitor. A cell homogenate was prepared by passing the cell suspension through a G29 needle. The cell homogenates corresponding to two T175 flasks were combined and subsequently centrifuged (10 min, 1000× g, 4 °C). Ultracentrifugation of the supernatant (1 h, 100,000× g, 4 °C) yielded a membrane pellet, which was suspended in 250 µL 50 mM Tris-HCl buffer, pH 7.4 and stored at −80 °C.
(§3) Then, 5 µL of test compound in DMSO, 50 µL of [^3H]NMS in assay buffer, and 445 µL of membrane suspension in assay buffer were incubated for 90 min at 23 °C in PP tubes. Maximum binding was measured by using 5 µL DMSO, and nonspecific binding was measured by using 5 µL of 1 µM scopolamine in DMSO. The effective concentration of [^3H]NMS was 0.2 nM, 0.3 nM, 0.8 nM, 0.2 nM, and 1 nM for M1–M5 and 4–30 µg membrane were used per tube. The membrane-bound radioactivity was recovered by filtration through Whatman™ GF/B glass fiber filters presoaked in aqueous 0.1% PEI using an M-36 tygon tubed cell harvester (Brandel®, Gaithersburg, MD, USA). Membranes were washed three times with ice-cold washing buffer (50 mM Tris, pH 7.4) before being dried, transferred to 2 mL scintillation cocktail (UltimaGold™, high flashpoint LSC cocktail, PerkinElmer, Waltham, MA, USA) and counted in a β-counter (Hidex TDCR liquid scintillation counter in CPM mode). IC50 values were calculated by a variable slope logistic regression using at least five distinct concentrations of test compounds, pipetted in triplicates.

[2] = target: T2, hM3 (Homo sapiens, UniProt P20309); set-up: method as in Ozenil et al. [10]; details: [3H]NMS; ref Ozenil et al. [10]; read-out: Affinity: Ki ± SD hM3; cited from earlier work
T2 sequence (P20309 whole entry): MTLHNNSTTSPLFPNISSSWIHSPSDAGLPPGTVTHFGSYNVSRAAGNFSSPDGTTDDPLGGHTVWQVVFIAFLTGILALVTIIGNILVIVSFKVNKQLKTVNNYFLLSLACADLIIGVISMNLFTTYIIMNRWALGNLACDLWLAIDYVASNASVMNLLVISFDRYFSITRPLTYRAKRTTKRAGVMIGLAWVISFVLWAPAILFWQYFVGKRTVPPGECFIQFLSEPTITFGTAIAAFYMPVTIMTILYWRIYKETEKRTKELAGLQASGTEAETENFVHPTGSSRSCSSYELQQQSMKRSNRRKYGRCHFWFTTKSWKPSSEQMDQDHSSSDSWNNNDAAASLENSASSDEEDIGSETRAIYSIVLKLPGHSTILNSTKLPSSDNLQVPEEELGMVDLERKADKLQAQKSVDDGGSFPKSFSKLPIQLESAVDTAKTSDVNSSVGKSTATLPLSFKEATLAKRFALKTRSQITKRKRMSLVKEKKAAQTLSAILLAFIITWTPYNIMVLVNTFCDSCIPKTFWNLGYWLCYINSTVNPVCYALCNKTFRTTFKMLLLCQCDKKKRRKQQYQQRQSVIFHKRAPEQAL

[3] = target: T3, hM5 (Homo sapiens, UniProt P08912); set-up: method as in Ozenil et al. [10]; details: [3H]NMS; ref Ozenil et al. [10]; read-out: Affinity: Ki ± SD hM5; cited from earlier work
T3 sequence (P08912 1-532): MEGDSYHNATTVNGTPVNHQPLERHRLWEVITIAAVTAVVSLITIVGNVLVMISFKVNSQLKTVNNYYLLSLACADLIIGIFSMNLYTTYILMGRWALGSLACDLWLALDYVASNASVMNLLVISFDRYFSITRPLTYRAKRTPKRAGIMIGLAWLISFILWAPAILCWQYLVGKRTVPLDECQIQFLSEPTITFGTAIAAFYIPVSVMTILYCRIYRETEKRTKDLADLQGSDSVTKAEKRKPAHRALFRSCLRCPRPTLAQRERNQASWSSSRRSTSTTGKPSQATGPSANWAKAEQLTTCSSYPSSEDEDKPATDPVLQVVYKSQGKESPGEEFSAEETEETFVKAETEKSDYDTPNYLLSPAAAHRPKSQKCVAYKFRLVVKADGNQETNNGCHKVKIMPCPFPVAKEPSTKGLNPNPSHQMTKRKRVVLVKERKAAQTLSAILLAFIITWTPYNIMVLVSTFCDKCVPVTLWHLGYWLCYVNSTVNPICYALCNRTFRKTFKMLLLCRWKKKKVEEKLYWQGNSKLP

[4] = target: T1, hM1; set-up: method as in Ozenil et al. [10]; details: [3H]NMS; ref Ozenil et al. [10]; read-out: Affinity: Ki ± SD hM1; cited from earlier work
[5] = target: T4, hM4 (Homo sapiens, UniProt P08173); set-up: method as in Ozenil et al. [10]; details: [3H]NMS; ref Ozenil et al. [10]; read-out: Affinity: Ki ± SD hM4; cited from earlier work
T4 sequence (P08173 1-479): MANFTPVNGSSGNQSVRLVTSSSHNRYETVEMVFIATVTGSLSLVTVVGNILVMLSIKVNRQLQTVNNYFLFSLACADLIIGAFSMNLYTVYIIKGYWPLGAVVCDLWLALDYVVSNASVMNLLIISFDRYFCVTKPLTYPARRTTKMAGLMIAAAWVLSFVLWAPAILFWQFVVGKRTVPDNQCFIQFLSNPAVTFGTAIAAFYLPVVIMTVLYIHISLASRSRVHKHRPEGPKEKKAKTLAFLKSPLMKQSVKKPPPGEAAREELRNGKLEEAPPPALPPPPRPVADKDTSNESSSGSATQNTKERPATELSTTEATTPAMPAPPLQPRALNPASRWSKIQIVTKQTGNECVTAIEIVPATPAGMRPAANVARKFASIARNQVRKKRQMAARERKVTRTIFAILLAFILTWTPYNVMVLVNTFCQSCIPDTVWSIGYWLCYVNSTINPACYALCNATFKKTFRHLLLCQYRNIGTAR

[6] = target: T5, hM2 (Homo sapiens, UniProt P08172); set-up: method as in Ozenil et al. [10]; details: [3H]NMS; ref Ozenil et al. [10]; read-out: Affinity: Ki ± SD hM2; cited from earlier work
T5 sequence (P08172 1-466): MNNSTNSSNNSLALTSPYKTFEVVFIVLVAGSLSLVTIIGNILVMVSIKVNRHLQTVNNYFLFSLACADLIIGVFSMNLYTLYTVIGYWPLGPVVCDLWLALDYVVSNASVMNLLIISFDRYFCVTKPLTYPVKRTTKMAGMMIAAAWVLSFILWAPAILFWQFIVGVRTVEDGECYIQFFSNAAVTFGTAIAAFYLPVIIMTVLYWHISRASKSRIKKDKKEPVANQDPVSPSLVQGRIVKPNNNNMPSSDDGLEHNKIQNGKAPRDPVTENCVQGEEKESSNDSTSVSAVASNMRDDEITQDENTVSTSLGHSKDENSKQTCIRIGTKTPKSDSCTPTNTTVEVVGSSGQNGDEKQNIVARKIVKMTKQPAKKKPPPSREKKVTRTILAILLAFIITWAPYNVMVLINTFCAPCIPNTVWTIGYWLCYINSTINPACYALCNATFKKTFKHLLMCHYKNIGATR

[7] = set-up: method as in Ozenil et al. [10]; details: ref Ozenil et al. [10]; cited from earlier work
[8] = target: T3, hM5; test: Competitive [3H]NMS radioligand binding, CHO-K1 membranes expressing hM5; details: for Displacement ± SD hM5: displacement of [3H]NMS, single ligand concentration corresponding to a Ki value of 1 µM (Cheng-Prusoff)
From the text: as §1, §2, §3

[9] = target: T5, hM2; test: Competitive [3H]NMS radioligand binding, CHO-K1 membranes expressing hM2; details: for Displacement ± SD hM2: displacement of [3H]NMS, single ligand concentration corresponding to a Ki value of 1 µM (Cheng-Prusoff)
From the text: as §1, §2, §3

[10] = High-throughput HPLC-logD; type: physicochemical; details: octadecyl-poly(vinyl alcohol) column, methanol / 0.01 M sodium phosphate buffer pH 7.4
From the text: For this, logD values were estimated in an HPLC-based high-throughput assay employing an octadecyl-poly(vinyl alcohol) stationary phase. The absence of silanol groups renders this type of column especially suited in case of analytes with hydrogen bond donor capabilities as it avoids overestimating their lipophilicity.
Briefly, a mixture of toluene (≥98%, Sigma-Aldrich, St. Louis, MO, USA) and triphenylene (≥99.9%, Carl Roth, Karlsruhe, Germany) was used as internal standard. Samples were dissolved in the internal standard mixture. Using gradient elution, the injection volume was set to 7 µL, the flow rate was 1.5 mL/min, and the mobile phase consisted of a mixture of methanol and 0.01 M sodium phosphate buffer pH 7.4. The HPLC-logD values were derived from the measured retention times following the previously published equation [21, 40].

[11] = target: T4, hM4; test: Competitive [3H]NMS radioligand binding, CHO-K1 membranes expressing hM4; details: for Displacement ± SD hM4: displacement of [3H]NMS, single ligand concentration corresponding to a Ki value of 1 µM (Cheng-Prusoff)
From the text: as §1, §2, §3

[12] = target: T2, hM3; test: Competitive [3H]NMS radioligand binding, CHO-K1 membranes expressing hM3; details: for Displacement ± SD hM3: displacement of [3H]NMS, single ligand concentration corresponding to a Ki value of 1 µM (Cheng-Prusoff)
From the text: as §1, §2, §3

## CN1CCC=C(C(=O)OC(c2ccccc2)c2ccccc2)C1 [DPMA, benzhydryl 1-methyl-1,2,5,6-tetrahydropyridine-3-carboxylate]
[1]; ratio of the Ki values hM2/hM1
  x-Fold Selectivity for hM1 vs. hM2: 35.5 x-fold
[1]; ratio of the Ki values hM3/hM1
  x-Fold Selectivity for hM1 vs. hM3: 18.1 x-fold
[1]; ratio of the Ki values hM4/hM1
  x-Fold Selectivity for hM1 vs. hM4: 5.2 x-fold
[1]; ratio of the Ki values hM5/hM1
  x-Fold Selectivity for hM1 vs. hM5: 4.5 x-fold
[2]
  Ki: 56 ± 22 nM
[3]
  Ki: 14 ± 1 nM
[4]
  Ki: 3.1 ± 0.5 nM
[5]
  Ki: 16 ± 4 nM
[6]
  Ki: 110 ± 39 nM
[7]
  HPLC-logD: 3.32 ± 0.04 ^2

## CN1CCC=C(C(=O)OC(CO)c2ccccc2)C1 (centres unmarked) [Compound 22, 2-hydroxy-1-phenylethyl 1-methyl-1,2,5,6-tetrahydropyridine-3-carboxylate]
[1]
  Displacement ± SD hM1: 61 ± 2%
[8]
  Displacement ± SD hM5: 72 ± 5%
[9]
  Displacement ± SD hM2: 28 ± 5%
[10]
  chromatographic logD: 0.92 ± 0.08
[11]
  Displacement ± SD hM4: 51 ± 5%
[12]
  Displacement ± SD hM3: 33 ± 8%

## CN1CCC=C(C(=O)OCc2ccccc2CO)C1 [Compound 8a, 2-(hydroxymethyl)benzyl 1-methyl-1,2,5,6-tetrahydropyridine-3-carboxylate]
[1]
  Displacement ± SD hM1: 66 ± 5%
[8]
  Displacement ± SD hM5: 72 ± 3%
[9]
  Displacement ± SD hM2: 43 ± 2%
[10]
  chromatographic logD: 0.79 ± 0.01
[11]
  Displacement ± SD hM4: 56 ± 9%
[12]
  Displacement ± SD hM3: 72 ± 4%

## CN1CCC=C(C(=O)OC(c2ccccc2)c2cccc(CO)c2)C1 (centres unmarked) [Compound 10b, (3-(hydroxymethyl)phenyl)(phenyl)methyl 1-methyl-1,2,5,6-tetrahydropyridine-3-carboxylate]
[1]; [3H]NMS, CHO-hM1 cell membrane preparations, read-out: Affinity: Ki ± SD hM1
  Ki: 12.5 ± 0.8 nM
[8]; [3H]NMS, CHO-hM5 cell membrane preparations, read-out: Affinity: Ki ± SD hM5
  Ki: 49.1 ± 8.5 nM
[9]; [3H]NMS, CHO-hM2 cell membrane preparations, >1000 values from two independent (single-concentration) experiments, read-out: Affinity: Ki ± SD hM2
  Ki: 198 ± 35 nM
[10]
  chromatographic logD: 2.6 ± 0.1
[11]; [3H]NMS, CHO-hM4 cell membrane preparations, read-out: Affinity: Ki ± SD hM4
  Ki: 32.3 ± 3.8 nM
[12]; [3H]NMS, CHO-hM3 cell membrane preparations, read-out: Affinity: Ki ± SD hM3
  Ki: 70.4 ± 1.8 nM

## CN1CCC=C(C(=O)OCc2cccc(CO)c2)C1 [Compound 8b, 3-(hydroxymethyl)benzyl 1-methyl-1,2,5,6-tetrahydropyridine-3-carboxylate]
[1]
  Displacement ± SD hM1: 31 ± 3%
[8]
  Displacement ± SD hM5: 29 ± 6%
[9]
  Displacement ± SD hM2: 23 ± 4%
[10]
  chromatographic logD: 0.87 ± 0.01
[11]
  Displacement ± SD hM4: 22 ± 1%
[12]
  Displacement ± SD hM3: 34 ± 4%

## CN1CCC=C(C(=O)Oc2ccccc2-c2ccccc2O)C1 [Compound 27, 2′-hydroxy-[1,1′-biphenyl]-2-yl 1-methyl-1,2,5,6-tetrahydropyridine-3-carboxylate]
[1]
  Displacement ± SD hM1: 37 ± 6%
[8]
  Displacement ± SD hM5: 65 ± 11%
other
  melting point: 142 to 144 °C
[9]
  Displacement ± SD hM2: 34 ± 7%
[10]
  chromatographic logD: 2.69 ± 0.01
[11]
  Displacement ± SD hM4: 46 ± 3%
[12]
  Displacement ± SD hM3: 51 ± 9%
